Consider four compounds from US8334413B2, “Topical compositions and methods for epithelial-related conditions” (Signum Biosciences, Inc., priority 2004, dated 2012).

For one data set, the system named is chronic irritation. As to the kind of experiment: Chronic irritation by multiple TPA applications, mouse ear. In kind it is in vivo, mice. Particulars: AFC in acetone, applied 6 hr apart on days 7, 8 and 9; TPA days 0, 2, 4, 7, 9. On the procedure: The effectiveness of the inventive compositions against established chronic irritation is assayed using a modification of the technique of Stanley P L et al., Mouse skin inflammation induced by multiple topical application 12-O-tetradeconoyphorbol-13-acetate. Skin Pharmacol. 1991, 4: p 262-271. (1991). Both ears of each mouse are treated with TPA in acetone, as above, in a series of 5 applications on the mornings of days 0, 2, 4, 7, and 9. […] Punches of the ears are taken the afternoon of the tenth day and prepared, as above, for the edema assay and the infiltration of neutrophils. Total granulocyte infiltration is assayed by measuring MPO activity. Macrophage infiltration is determined immunocytologically using the MOMA-2 antibody. Hydrocortisone, which is known to reduce inflammatory edema granulation infiltration and microphage infiltration, is used as a positive control.

Data set [1] relates to TPA-induced MPO activity. As to the kind of experiment: TPA-induced neutrophil infiltration, MPO assay. In kind it is in vivo, Swiss Webster male mice. On the procedure:
Neutrophil-infiltration Assay: Swiss Webster male mice (n=6) were treated with 1 μg/20 μl of TPA as described above in order to assess whether or not TPA induced neutrophil infiltration. Acetone was used as a control. TPA was administered as described above. The mice were returned to their cages for 24 hrs to allow neutrophil infiltration, then sacrificed by cervical dislocation. The ears were immediately removed for punch biopsy, and punches were fixed for subsequent histological analysis and MPO enzymatic assay.
MPO Assay: This assay measures myeloperoxidase, (“MPO”) which is packaged in the primary granules of mature granulocytes including the neutrophil. Thus, the amount of MPO in the ear is proportional to the number of infiltrating neutrophils.
MPO enzyme activity of the ears was assayed using the technique detailed by Griffiths and coworkers (1988). To conduct the assay, each ear was homogenized in 1.0 ml of cetyltrimethylammonium bromide buffer for 5 sec using a Pro 200 tissue blender (Pro Scientific, Inc., Oxford, Conn.) at setting 5. These samples were then centrifuged for 5 minutes at 15,000 rpm in a 5415 Eppendorf microcentrifuge. Triplicate 20 microliter aliquots of supernatant were added to 200 microliters of reaction mixture (1.25 ml 1M Potassium Phosphate, 4.175 mg o-dianisidine dihydrochloride and 5 μl of 1% peroxide in a final volume of 25 ml). Absorbance at 450 nm was then measured at room temperature at three 60 second intervals using Bio-Kinetics Reader EL 312E (Bio-Tek Instruments). Activity, which was determined by a Bradford assay of the homogenate (BioRad Protein Assay, BioRad Laboratories, Inc. Hercules, Calif.) was expressed as units MPO per mg tissue +/−standard error.
(§1) Two micrograms of TPA in 20 μl of acetone was applied onto both ears of each mouse to induce neutrophil infiltration. […] After 24 hours, the mice were sacrificed.

Data set [2] has as its system TPA-induced MPO activity. As to the kind of experiment: TPA-induced MPO activity in the contralateral vehicle-treated ear (systemic effect). The class given is in vivo, mice.
Experimental: These included dexamethasone, a steroid, and indomethasone, a non-steroid anti-inflammatory drug, which targets cycloxygenases. The action of AFC in this model was, therefore, compared to that of dexamethasone and indomethasone. Each of these agents were tested using the same protocols used to test AFC.
Another data set concerns TPA-induced erythema. The data set can be described thus: TPA-induced erythema, mouse ear. In kind it is in vivo. Particulars: 1 μg/20 μl TPA, 1 mg/20 μl AFC after 1 hour, photo 23 hours later. On the procedure:
For this example, both ears of a mouse were treated with a 1 μg/20 μl dose of TPA in acetone. […] The photo was taken 23 hours later using a Nikon D70 digital camera.

In data set [3] the test system is TPA-induced neutrophil infiltration. As to the kind of experiment: TPA-induced neutrophil infiltration, neutrophil counting assay (histology). The class given is in vivo, mice. Particulars: 24 hours. As to the method:
Neutrophil Counting Assay: Ear punches buffered in 10% formalin in PBS at ambient temperature for a minimum of 24 hrs. were sectioned and stained with Hematoxilin & Eosin (“H&E”). The number of neutrophils, identified by their multilobular nuclei, in 6 randomly 100× magnified fields distributed along the length of the ear were manually counted. The results are expressed as the average number per field for each ear.
as §1

In the next data set the test system is human skin. The data set can be described thus: SDS irritant patch test on human skin, AFC pre-applied. In kind it is in vivo. Particulars: 140 mM AFC aqueous formulation pre-applied. On the procedure:
An irritant was applied to the middle of the upper back of a human subject using a 0.2 ml 20% SDS solution and a Hill-Top Chamber patch with Webril pad. […] Patches 1a and 2a were removed after 2 hours, while patches 1b and 2b were removed after 2 hours and 30 minutes. High levels of irritation were visible in patch sites 2a and 2b.

The subject of data set [4] is TPA-induced MPO activity. The data set can be described thus: TPA-induced MPO activity at different application times. In kind it is in vivo, mice. The conditions noted are these: 1 μg/20 μl TPA; 1 mg/20 μl AFC at various times before and after TPA. On the procedure:
In this example, both ears of six mice were treated with a 1 μg/20 μl dose of TPA in acetone.

For data set [5], the system named is delayed-type hypersensitivity. The data set can be described thus: DNFB delayed-type hypersensitivity, mouse ear. In kind it is in vivo, mice. Particulars: AFC 0.5 hr before or 15 min after DNFB challenge, assay 5 hr later. An excerpt: The mouse ear model, described above, is modified to assay the effect of anti-inflammatory agents in an immune based inflammation model (See Tramposch, K. M., Skin Inflammation, in In Vivo Models of Inflammation, M. L. Morgan D W, Editor. 1999, Birkhauser Verlag. p. 179-20 and Chapman, J. R., Z. Ruben, and G. M. Butchko, Histology of and quantitative assays for oxazolone-induced allergic contact dermatitis in mice. Am J Dermatopathol, 1986. 8(2): p. 130-8). In this model, a sensitizing dose of dinitrofluorobenzene (“DNFB”) 1-3% in acetone is applied topically according to a modification of the method by Back et al. (See Back, O. and T. Egelrud, Topical glucocorticoids and suppression of contact sensitivity. A mouse bioassay of anti-inflammatory effects. Br J Dermatol, 1985. 112(5): p. 539-45 and Bailey, S. C., et al., A novel contact hypersensitivity model for rank-ordering formulated corticosteroids. Inflamm Res, 1995. 44 Suppl 2: p. S162-3) to the shaved bellies of mice to elicit an immune response. Mice are challenged on day 5 with 40 μl of 0.5-1% DNFB to each ear. […] The ears are assayed for edema or neutrophil infiltration 5 hr later. Dexamethasone is used as a positive control. Five days later, the ears are challenged topically with a dose of DNFB insufficient to produce contact irritation. Simultaneously, cell infiltration studies are initiated. […]

The test system of data set [6] is mouse ear. As to the kind of experiment: AFC in acetone alone, mouse ear edema (irritancy). The conditions noted are these: topical, dose up to 32 mg/20 μl, 5.5 hours. The class given is in vivo, mice. As to the method:
The AFC inventive compositions were spread evenly with a pipette tip. Each contralateral ear was treated with only acetone in the same manner. The mice then were returned to their cages. After 5.5 hours, mice were sacrificed and 6 mm punches were taken from each ear and weighed. Edema response was expressed as the percent increase in the treated ear's weight over the untreated (acetone, vehicle only) ear.

Data set [7] has as its system neutrophil, macrophage, and platelet responses. The conditions noted are these: cited from earlier work.
The target of data set [8] is membrane-associated polyisoprenoid methyl transferase (Homo sapiens, UniProt O60725). Particulars: cited from earlier work.
Chain of membrane-associated polyisoprenoid methyl transferase (O60725 whole entry): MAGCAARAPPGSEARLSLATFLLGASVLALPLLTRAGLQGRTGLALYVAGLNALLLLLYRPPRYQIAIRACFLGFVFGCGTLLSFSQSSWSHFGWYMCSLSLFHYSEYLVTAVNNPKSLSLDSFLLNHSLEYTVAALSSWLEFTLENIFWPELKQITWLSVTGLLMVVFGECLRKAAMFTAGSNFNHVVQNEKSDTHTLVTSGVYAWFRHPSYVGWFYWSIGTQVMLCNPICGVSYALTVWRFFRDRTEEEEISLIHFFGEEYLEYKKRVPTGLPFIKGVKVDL
A further data set has as its system TPA-induced edema. As to the kind of experiment: TPA-induced edema, murine ear acute contact irritation model. In kind it is in vivo, mice. The conditions noted are these: 2 μg TPA/20 μl acetone, AFC 15 min later, topical, 5.5 hours. On the procedure:
In order to assess the effects of the inventive composition on TPA-induced edema, 2 μg of TPA in 20 μl acetone was applied with the aid of a micropipetter onto both ears of each of 6 mice. The mice were returned to their cages. […] 20 μl of an acetone vehicle was applied similarly to the left ear of each mouse as an internal negative control. After treatment, the mice were returned to their cages for 5.5 hours. The mice were sacrificed by cervical dislocation. The ears were immediately removed at their base and a 6 mm diameter punch biopsy was taken from the center of each ear. The ear punch was weighed on an analytical balance for edema measurements as described above.

In data set [9] the test system is mouse ear. The data set can be described thus: TPA dose response, mouse ear edema. In kind it is in vivo, Swiss Webster mice. The conditions noted are these: TPA 0.25 to 1.75 μg/20 μl in acetone, topical, 5.5 hours, 6 mm ear punch. On the procedure:
Increasing concentrations of TPA dissolved in acetone were applied with the aid of a micropipetter onto the right ear of each of the five 6-8 week old, male Swiss Webster mice used in this analysis. Ten microliters were spread evenly onto the inner and outer surfaces using the pipette tip. The mice were then returned to their cages. The contralateral ear was treated only with acetone. After 5.5 hours, the mice were sacrificed and 6 mm punches were taken from each ear and weighed. Edema response was expressed as a percent increase in the treated ear's weight over the untreated ear. The dose response curve, as well as an ED50 value, was determined using the Lichtfield method (Lichtfield J T W. F., A simplified method of evaluating dose-effect experiments, Journal of Pharmacology and Experimental Therapeutics, 1948, 96: P. 99-113).

Where [10] appears, read: 2 μg TPA/20 μl acetone, AFC 15 min later, topical, 24 hours.

Some results are limits rather than exact numbers.

Consider `CC(=O)N[C@@H](CSCC=C(C)CCC=C(C)CCC=C(C)C)C(=O)O` (stereo in doubt) [AFC, N-acetyl-S-farnesylcysteine], for which, in the data set on chronic irritation, the chronic edema result is “reduces” and the “neutrophil number (chronic irritation)” value is given as “reduces”. In the data set on TPA-induced MPO activity [1] (setting [10]), the “ED50, inhibition of TPA-induced MPO activity” value was 0.065 mg/20 μl and the “inhibition of TPA-induced increases in MPO activity” value is reported as more than 80%. For the same compound, the “inflammation activity of AFC on its own in the Neutrophil-Infiltration Assay” value in the data set on TPA-induced MPO activity [1] (AFC alone) is listed as “no inflammation activity of its own”. In addition, the “MPO activity in contralateral vehicle-treated ear (systemic effect)” value (“MPO activity … (systemic effect)” below) in the data set on TPA-induced MPO activity [2] (topical, increasing concentration on the other ear, TPA on both ears) was “no effect”. The TPA-induced erythema entry with TPA-induced erythema is on record as “observed an effect”. Besides, the “reduction in dermal neutrophils (counted)” value in [3] (1.0 mg/20 μl AFC, TPA irritation, statistically significant) was found to be 80%. In addition, the “neutrophils observed histologically in AFC treated ear” value in [3] (TPA pretreated ears, H&E) is on record as “substantial reduction of neutrophils”. For the same compound, the “skin irritation at patch site 1a” value in the data set on human skin (20% SDS patch removed after 2 hours) is “normal skin”. Further, in the data set with human skin (20% SDS patch removed after 2 hours and 30 minutes), the “skin irritation at patch site 1b” value is on record as “mild response”. In the data set on TPA-induced MPO activity [4], the “effect on TPA-induced MPO activity versus time of application” value was “efficacy of AFC treatment prior to, simultaneous with, or after exposure of skin to TPA”. Moreover, in data set [5], the “edema (DNFB challenge)” value is recorded as “effective in reducing” and the “neutrophil infiltration (DNFB challenge)” value is recorded as “effective in reducing”. Moreover, in the data set with mouse ear [6], the “edema response (ear punch biopsy weight), AFC alone” value is listed as “no effect”. Moreover, the “neutrophil, macrophage, and platelet responses in vitro” value in data set [7] is recorded as “block some”. For the same compound, the “inhibition of membrane-associated polyisoprenoid methyl transferase” value in data set [8] was “inhibit”. Besides, the “maximum reduction in TPA-induced edema” value in the data set with TPA-induced edema is reported as 80%.
`COc1ccc2c(c1)c(CC(=O)O)c(C)n2C(=O)c1ccc(Cl)cc1` [indomethasone]: the “MPO activity … (systemic effect)” value in the data set with TPA-induced MPO activity [2] (mouse, in vivo) is on record as “increasing inhibition of MPO activity”.
tetradecanoylphorbol acetate [TPA]: the “maximum increase in ear weight” value in the data set on mouse ear [9] was “approximately 150 % of the acetone-treated ear”.
As for `C[C@@H]1C[C@H]2[C@@H]3CCC4=CC(=O)C=C[C@]4(C)[C@@]3(F)[C@@H](O)C[C@]2(C)[C@@]1(O)C(=O)CO` [dexamethasone], in the data set on TPA-induced MPO activity [2] (mouse, in vivo), the “MPO activity … (systemic effect)” value is recorded as “increasing inhibition of MPO activity”.
